PubChem BioAssay AID256 (DTP/NCI, 2004)
Several values for one entry are separate records, joined by “and”; a condition that tells them apart may be missing. Equal values may be shown once. Toxic doses and inconclusive results are not listed.

Test system: CD2F1 mice, L1210 leukemia ip, survival T/C
Assay: NCI In Vivo Anticancer Drug Screen. Data for tumor model L1210 Leukemia (intraperitoneal) in CD2F1 (CDF1) mice
Conditions: endpoint: mean survival time, higher = longer survival
Summary of the method: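 Vehicle-treated tumor-bearing mice served as controls (C) for compound-treated mice (T). Reported figure is T divided by C.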

[1] = dose: 100.0 mg/kg/injection, schedule: Q04DX002 (ip), vehicle: saline with Tween-80
[2] = dose: 100.0 mg/kg/injection, schedule: Q04DX003 (ip), vehicle: saline with Tween-80
[3] = dose: 200.0 mg/kg/injection, schedule: Q04DX003 (ip), vehicle: saline with Tween-80
[4] = dose: 400.0 mg/kg/injection, schedule: Q04DX003 (ip), vehicle: saline with Tween-80
[5] = dose: 50.0 mg/kg/injection, schedule: Q01DX009 (ip), vehicle: saline with Tween-80
[6] = dose: 100.0 mg/kg/injection, schedule: Q01DX009 (ip), vehicle: saline with Tween-80
[7] = dose: 100.0 mg/kg/injection, schedule: Q04DX003 (ip), vehicle: saline
[8] = dose: 200.0 mg/kg/injection, schedule: Q04DX003 (ip), vehicle: saline
[9] = dose: 400.0 mg/kg/injection, schedule: Q04DX003 (ip), vehicle: saline
[10] = dose: 50.0 mg/kg/injection, schedule: Q04DX003 (ip), vehicle: saline with Tween-80
[11] = dose: 100.0 mg/kg/injection, schedule: Q01DX001 (ip), vehicle: saline with Tween-80
[12] = dose: 200.0 mg/kg/injection, schedule: Q01DX001 (ip), vehicle: saline with Tween-80
[13] = dose: 200.0 mg/kg/injection, schedule: Q01DX009 (ip), vehicle: saline with Tween-80
[14] = dose: 400.0 mg/kg/injection, schedule: Q01DX001 (ip), vehicle: saline with Tween-80
[15] = dose: 100.0 mg/kg/injection, schedule: Q01DX009 (ip), vehicle: saline
[16] = dose: 200.0 mg/kg/injection, schedule: Q01DX009 (ip), vehicle: saline
[17] = dose: 400.0 mg/kg/injection, schedule: Q01DX009 (ip), vehicle: saline with Tween-80

With `COC(=O)c1cocc1C(=O)OC` the T/C [1] was 95 % of control, the T/C (dose: 200.0 mg/kg/injection, schedule: Q04DX002 (ip), vehicle: saline with Tween-80) was 91 % of control and the T/C (dose: 400.0 mg/kg/injection, schedule: Q04DX002 (ip), vehicle: saline with Tween-80) was 95 % of control.

With `O=C(Nc1cccc2ccccc12)SCc1ccccc1` the T/C (dose: 50.0 mg/kg/injection, schedule: Q04DX002 (ip), vehicle: Klucel (hydroxypropylcellulose) (HPC)) was 88 % of control, the T/C (dose: 100.0 mg/kg/injection, schedule: Q04DX002 (ip), vehicle: Klucel (hydroxypropylcellulose) (HPC)) was 106 % of control and the T/C (dose: 200.0 mg/kg/injection, schedule: Q04DX002 (ip), vehicle: Klucel (hydroxypropylcellulose) (HPC)) was 95 % of control.

For `NC(=S)c1cc(C(N)=S)[nH]n1`, the T/C (dose: 6.25 mg/kg/injection, schedule: Q01DX005 (ip), vehicle: other) was 101 % of control, the T/C (dose: 12.5 mg/kg/injection, schedule: Q01DX005 (ip), vehicle: other) was 97 % of control and the T/C (dose: 25.0 mg/kg/injection, schedule: Q01DX005 (ip), vehicle: other) was 93 % of control. The T/C (dose: 50.0 mg/kg/injection, schedule: Q01DX005 (ip), vehicle: other) was 95 % of control.

`CC1=C(NNS(=O)(=O)c2ccc(C)cc2)CCCC1=O` was tested, and the T/C (dose: 25.0 mg/kg/injection, schedule: Q04DX002 (ip), vehicle: saline with Tween-80) was 94 % of control, the T/C (dose: 50.0 mg/kg/injection, schedule: Q04DX002 (ip), vehicle: saline with Tween-80) was 97 % of control and the T/C [1] was 91 % of control and 96 % of control.

For `CC1=CC(C)N(C(=O)c2ccc(Cl)cc2)CCN1C(=O)c1ccc(Cl)cc1` (stereo not given), the T/C [2] was 98 % of control, the T/C [3] was 102 % of control and the T/C [4] was 102 % of control.

In the case of `CNCCSSCCN`, the T/C [5] is reported as 95 % of control, the T/C (dose: 50.0 mg/kg/injection, schedule: Q04DX003 (ip), vehicle: saline) is reported as 98 % of control and the T/C [6] is reported as 93 % of control. The T/C [7] was 93 % of control, the T/C [8] was 98 % of control and the T/C [9] was 98 % of control.

`C=CC1CN2CCC1CC2C(O)c1ccnc2ccccc12` (stereo not given) (tested in a mixture with another compound) was tested, and the T/C (dose: 25.0 mg/kg/injection, schedule: Q04DX003 (ip), vehicle: saline with Tween-80) was 100 % of control, the T/C (dose: 50.0 mg/kg/injection, schedule: Q01DX001 (ip), vehicle: saline with Tween-80) was 100 % of control and the T/C [5] was 96 % of control. For the same compound, the T/C [10] was 98 % of control, the T/C [11] was 96 % of control and 92 % of control and the T/C [6] was 98 % of control. The T/C [2] was 93 % of control and 100 % of control, the T/C [12] was 104 % of control and 92 % of control and the T/C [13] was 90 % of control.

For `S=C(Nc1ccc(Cl)c(Cl)c1)N1c2ccccc2-n2cccc2C1c1cccnc1` (stereo not given), the T/C (dose: 12.5 mg/kg/injection, schedule: Q01DX009 (ip), vehicle: Klucel (hydroxypropylcellulose) (HPC)) was 96 % of control and 104 % of control, the T/C (dose: 25.0 mg/kg/injection, schedule: Q01DX009 (ip), vehicle: Klucel (hydroxypropylcellulose) (HPC)) was 98 % of control and 105 % of control and the T/C (dose: 50.0 mg/kg/injection, schedule: Q01DX009 (ip), vehicle: Klucel (hydroxypropylcellulose) (HPC)) was 104 % of control and 109 % of control. The T/C (dose: 100.0 mg/kg/injection, schedule: Q01DX009 (ip), vehicle: Klucel (hydroxypropylcellulose) (HPC)) was 113 % of control and 114 % of control and 107 % of control, the T/C (dose: 200.0 mg/kg/injection, schedule: Q01DX009 (ip), vehicle: Klucel (hydroxypropylcellulose) (HPC)) was 115 % of control and 120 % of control and 123 % of control and the T/C (dose: 400.0 mg/kg/injection, schedule: Q01DX009 (ip), vehicle: Klucel (hydroxypropylcellulose) (HPC)) was 112 % of control.

`CC1OC1c1ccc(-c2ccc(C3OC3C)cc2)cc1` (stereo not given) was tested, and the T/C (dose: 150.0 mg/kg/injection, schedule: Q01DX Z (ip), vehicle: saline) was 101 % of control.

With `O=C1/C(=C/c2ccccc2)CCCC1/C=C/c1ccccc1` (stereo not given) the T/C [2] was 100 % of control, the T/C [3] was 100 % of control and the T/C [4] was 97 % of control.

`COC(=O)CNc1ccn(C2OC(CO)C(O)C2O)c(=O)n1` (stereo not given) was tested, and the T/C (dose: 12.5 mg/kg/injection, schedule: Q01DX005 (ip), vehicle: distilled water + Tween-80) was 96 % of control, the T/C (dose: 25.0 mg/kg/injection, schedule: Q01DX005 (ip), vehicle: distilled water + Tween-80) was 100 % of control and the T/C (dose: 50.0 mg/kg/injection, schedule: Q01DX005 (ip), vehicle: distilled water + Tween-80) was 100 % of control. For the same compound, the T/C (dose: 100.0 mg/kg/injection, schedule: Q01DX005 (ip), vehicle: distilled water + Tween-80) was 97 % of control and the T/C (dose: 200.0 mg/kg/injection, schedule: Q01DX005 (ip), vehicle: distilled water + Tween-80) was 103 % of control.

With `COc1cccc2c1C(=O)c1c(O)c3c(c(O)c1C2=O)C[C@@](O)(C(=O)CN1CCOCC1)C[C@@H]3OC1CC(N)C(O)C(C)O1` (stereo not given in full) the T/C (dose: 6.25 mg/kg/injection, schedule: Q04DX003 (ip), vehicle: water) was 90 % of control, the T/C (dose: 12.5 mg/kg/injection, schedule: Q04DX003 (ip), vehicle: water) was 91 % of control and the T/C (dose: 25.0 mg/kg/injection, schedule: Q04DX003 (ip), vehicle: water) was 105 % of control. For the same compound, the T/C (dose: 50.0 mg/kg/injection, schedule: Q04DX003 (ip), vehicle: water) was 91 % of control.

With `O=[N+]([O-])c1ccc(N/N=C(\CBr)c2ccccc2)c([N+](=O)[O-])c1` the T/C [11] was 101 % of control, the T/C [12] was 92 % of control and the T/C [14] was 93 % of control.

In the case of `C[n+]1cccc(C(=O)c2ccccc2)c1`, the T/C (dose: 75.0 mg/kg/injection, schedule: Q01DX001 (ip), vehicle: other) is reported as 100 % of control.

`Nc1nc(N)c2cc(CNc3ccc(C(=O)NC(CC(=O)O)C(=O)O)c(Cl)c3)ccc2n1` (stereo not given) was tested, and the T/C (dose: 5.0 mg/kg/injection, schedule: Q01DX001 (ip), vehicle: saline) was 160 % of control.

In the case of `COc1ccc(/C=N/N=C(/N)N[N+](=O)[O-])cc1`, the T/C (dose: 100.0 mg/kg/injection, schedule: Q01DX001 (ip), vehicle: Klucel (hydroxypropylcellulose) (HPC)) is reported as 94 % of control, the T/C (dose: 200.0 mg/kg/injection, schedule: Q01DX001 (ip), vehicle: Klucel (hydroxypropylcellulose) (HPC)) is reported as 97 % of control and the T/C (dose: 400.0 mg/kg/injection, schedule: Q01DX001 (ip), vehicle: Klucel (hydroxypropylcellulose) (HPC)) is reported as 94 % of control.

In the case of `Nc1nc(-c2cccc([N+](=O)[O-])c2)c(N=Nc2ccccc2Cl)s1`, the T/C [11] is reported as 89 % of control and the T/C [14] is reported as 96 % of control.

With `CC(C)C(Br)C(=O)NCC(=O)NCC(=O)O` (stereo not given) the T/C [2] was 101 % of control, the T/C [3] was 100 % of control and the T/C [4] was 92 % of control.

`CCOC(=O)C(C)C(=O)O` (stereo not given) was tested, and the T/C (dose: 50.0 mg/kg/injection, schedule: Q01DX009 (ip), vehicle: saline) was 97 % of control, the T/C [15] was 98 % of control and the T/C [7] was 98 % of control. For the same compound, the T/C [16] was 98 % of control and the T/C [8] was 96 % of control.

For `O=CNCCN(C=O)CCO`, the T/C [15] was 97 % of control, the T/C [16] was 104 % of control and the T/C (dose: 400.0 mg/kg/injection, schedule: Q01DX009 (ip), vehicle: saline) was 98 % of control.

For `C=CCON(C)c1ccccc1`, the T/C [6] was 94 % of control, the T/C [13] was 90 % of control and the T/C [17] was 99 % of control.

For `[O]=[Zr]`, the T/C (dose: 75.0 mg/kg/injection, schedule: Q01DX001 (ip), vehicle: saline) was 94 % of control, the T/C (dose: 150.0 mg/kg/injection, schedule: Q01DX001 (ip), vehicle: saline) was 97 % of control and the T/C (dose: 300.0 mg/kg/injection, schedule: Q01DX001 (ip), vehicle: saline) was 98 % of control.

For `COc1ccc2c(c1)CNC1c3cc(OC)c(O)cc3CC21` (stereo not given), the T/C (dose: 66.0 mg/kg/injection, schedule: Q04DX003 (ip), vehicle: saline with Tween-80) was 107 % of control.

With `COc1ccc(OC)c(CCc2cc(OC)ccc2OC)c1` the T/C (dose: 12.5 mg/kg/injection, schedule: Q04DX003 (ip), vehicle: other) was 97 % of control, the T/C (dose: 25.0 mg/kg/injection, schedule: Q04DX003 (ip), vehicle: other) was 86 % of control and the T/C (dose: 50.0 mg/kg/injection, schedule: Q04DX003 (ip), vehicle: other) was 97 % of control.

`O=C1C(Cl)=C(c2ccccc2)C(=O)C(Cl)=C1c1ccccc1` was tested, and the T/C [10] was 103 % of control, the T/C [2] was 109 % of control and the T/C [3] was 107 % of control.

`CC(O)C[As](=O)(O)c1ccccc1Cl` (stereo not given) was tested, and the T/C (dose: 6.25 mg/kg/injection, schedule: Q04DX003 (ip), vehicle: saline) was 107 % of control and the T/C (dose: 12.5 mg/kg/injection, schedule: Q04DX003 (ip), vehicle: saline) was 107 % of control.

With `c1ccc(CC2=NCCO2)cc1` the T/C [7] was 100 % of control, the T/C [8] was 95 % of control and the T/C [9] was 98 % of control.

In the case of `Cc1c(Cl)cccc1NC(=O)Nc1cccc2ccccc12`, the T/C [6] is reported as 113 % of control, the T/C [2] is reported as 93 % of control and the T/C [13] is reported as 102 % of control. For the same compound, the T/C [3] was 102 % of control, the T/C [17] was 96 % of control and the T/C [4] was 100 % of control.
